Test results: patent publication US10167306B2, “Crystalline form of 1-(beta-D-glucopyranosyl)-4-methyl-3-[5-(4-fluorophenyl)-2-thienylmethyl]benzene and preparation method thereof” (SHANGHAI DESANO PHARMACEUTICALS INVESTMENT CO., LTD, priority 2015, dated 2019)

Legend:
[1] = Suspension of crystalline form W in water, XRPD comparison; assay type: physicochemical; details: suspended in water of 20° C. and 60° C. for 4 days; form W prepared in Example 1; FIG. 5
Method: (§1) X-ray powder diffraction instrument: Brucker D8 advance X-ray powder diffraction; radiation source: copper target (α=1.540600 Å), scanning at room temperature; voltage: 40 kv; Current: 40 mA; starting 2θ: 2.000°, scanning range: 2.0000-50.000°; step size: 0.020°; measuring time: 12.6 seconds/step.
Crystalline forms W of canagliflozin prepared in Examples 1-7 were suspended in water of 20° C. and 60° C. for 4 days.

[2] = Crystalline form competition experiment: 1:1 mixture of form W and hemihydrate form suspended in water, XRPD comparison; assay type: physicochemical
Method: as §1
Crystalline forms W of canagliflozin prepared in Examples 1-7 were mixed with the hemihydrate crystalline of canagliflozin (the product after crystallization) prepared in Example 1 in WO2008069327 in a ratio of 1:1, and the mixtures were suspended in water of 20° C. and 60° C. for 4 days, respectively.

Row | Compound | stability of crystalline form (XRPD pattern) after suspending in water [1] | relative stability in the crystalline form competition experiments ([2]; versus hemihydrate crystalline form, 1:1 mixture in water of 20° C. and 60° C. for 4 days) | crystalline form transformation in the 1:1 mixture (XRPD pattern) ([2]; 1:1 mixture of form W (Example 1) and hemihydrate form of WO2008069327, suspended in water of 20° C. and 60° C. for 4 days, FIG. 6)
1 | Cc1ccc([C@@H]2O[C@H](CO)[C@@H](O)[C@H](O)[C@H]2O)cc1Cc1ccc(-c2ccc(F)cc2)s1 [crystalline form W, 1-(β-D-glucopyranosyl)-4-methyl-3-[5-(4-fluorophenyl)-2-thienylmethyl]benzene] | excellent stability | better stability | 
2 | Cc1ccc([C@@H]2O[C@H](CO)[C@@H](O)[C@H](O)[C@H]2O)cc1Cc1ccc(-c2ccc(F)cc2)s1 [hemihydrate crystalline form, 1-(β-D-glucopyranosyl)-4-methyl-3-[5-(4-fluorophenyl)-2-thienylmethyl]benzene, reference compound] |  |  | completely transformed into crystalline form W
